Consider 21 compounds from PubChem BioAssay AID276 (DTP/NCI, 2004).

For this experiment, the system named is B6C3F1 mice, Lewis lung carcinoma iv, survival T/C. The experiment is described as follows: NCI In Vivo Anticancer Drug Screen. Data for tumor model Lewis Lung Carcinoma (intravenous) in B6C3F1 mice. Conditions: endpoint: median survival time, higher = longer survival. In a few lines:
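Read-out is survival, expressed as the treated-group measurement over the vehicle control-group measurement. Animals bore a transplantable tumor and were given compound.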

Setting [1] is: dose: 3.12 mg/kg/injection, schedule: Q01DX009 (ip), vehicle: Klucel (hydroxypropylcellulose) (HPC).
Where [2] appears, read: dose: 6.25 mg/kg/injection, schedule: Q01DX009 (ip), vehicle: Klucel (hydroxypropylcellulose) (HPC).
[3] abbreviates: dose: 12.5 mg/kg/injection, schedule: Q01DX009 (ip), vehicle: Klucel (hydroxypropylcellulose) (HPC).
Setting [4] is: dose: 25.0 mg/kg/injection, schedule: Q01DX009 (ip), vehicle: Klucel (hydroxypropylcellulose) (HPC).
[5] abbreviates: dose: 50.0 mg/kg/injection, schedule: Q01DX009 (ip), vehicle: Klucel (hydroxypropylcellulose) (HPC).
[6] abbreviates: dose: 100.0 mg/kg/injection, schedule: Q01DX009 (ip), vehicle: Klucel (hydroxypropylcellulose) (HPC).
[7] abbreviates: dose: 12.0 mg/kg/injection, schedule: Q01DX009 (ip), vehicle: Klucel (hydroxypropylcellulose) (HPC).
The mark [8] stands for this setting: dose: 0.5 mg/kg/injection, schedule: Q01DX009 (ip), vehicle: saline.
Where [9] appears, read: dose: 1.0 mg/kg/injection, schedule: Q01DX009 (ip), vehicle: saline.
[10] abbreviates: dose: 25.0 mg/kg/injection, schedule: Q01DX009 (ip), vehicle: saline.
Setting [11] is: dose: 50.0 mg/kg/injection, schedule: Q01DX009 (ip), vehicle: saline.
Where [12] appears, read: dose: 100.0 mg/kg/injection, schedule: Q01DX009 (ip), vehicle: saline.
Setting [13] is: dose: 200.0 mg/kg/injection, schedule: Q01DX009 (ip), vehicle: saline.
Setting [14] is: dose: 6.25 mg/kg/injection, schedule: Q01DX009 (ip), vehicle: saline with Tween-80.
Setting [15] is: dose: 12.5 mg/kg/injection, schedule: Q01DX009 (ip), vehicle: saline with Tween-80.
The mark [16] stands for this setting: dose: 25.0 mg/kg/injection, schedule: Q01DX009 (ip), vehicle: saline with Tween-80.
[17] abbreviates: dose: 50.0 mg/kg/injection, schedule: Q01DX009 (ip), vehicle: saline with Tween-80.
Where [18] appears, read: dose: 3.12 mg/kg/injection, schedule: Q01DX009 (ip), vehicle: saline with Tween-80.
Where [19] appears, read: dose: 1.56 mg/kg/injection, schedule: Q01DX009 (ip), vehicle: saline with Tween-80.
Where [20] appears, read: dose: 12.0 mg/kg/injection, schedule: Q01DX009 (ip), vehicle: saline.

Molecules are shown by their SMILES. “And” between values parts separate entries of the source, which are not always exact repeats. Equal values may be shown once. Inconclusive results and toxic doses are left out.

Consider `CC(C)CC(=O)NC(C(=O)NC(C(=O)NC(CC(C)C)C(O)CC(=O)NC(C)C(=O)NC(CC(C)C)C(O)CC(=O)O)C(C)C)C(C)C` (stereo unspecified), for which the T/C by setting is: under setting [1], 95 % of control; under setting [2], 99 % of control; under setting [3], 95 % of control; under setting [4], 97 % of control; under setting [5], 97 % of control; under setting [6], 95 % of control.
Turning to `CCN(C)N=Nc1ccc(C(N)=O)cc1`, the T/C runs as follows: under setting [2], 95 % of control; under setting [3], 104 % of control; under setting [4], 111 % of control; under setting [5], 122 % of control.
In the case of `O=c1nc(-c2ccco2)sc(=O)[nH]1`, the T/C is 112 % of control under setting [7]; 96 % of control under setting [4]; 105 % of control under setting [5]; 116 % of control under setting [6]; 104 % of control (dose: 200.0 mg/kg/injection, schedule: Q01DX009 (ip), vehicle: Klucel (hydroxypropylcellulose) (HPC)).
Regarding `O=C1c2c(O)ccc(O)c2C(=O)c2c(NCCNCCO)ccc(NCCNCCO)c21`, the T/C (dose: 0.12 mg/kg/injection, schedule: Q01DX009 (ip), vehicle: saline) is 94 % of control; the T/C (dose: 0.12 mg/kg/injection, schedule: Q01DX009 (ip), vehicle: water) is 104 % of control; the T/C (dose: 0.25 mg/kg/injection, schedule: Q01DX009 (ip), vehicle: saline) is 101 % of control; the T/C (dose: 0.25 mg/kg/injection, schedule: Q01DX009 (ip), vehicle: water) is 106 % of control; the T/C under setting [8] was 100 % of control; the T/C (dose: 0.5 mg/kg/injection, schedule: Q01DX009 (ip), vehicle: water) was 110 % of control. For the same compound, the T/C was 123 % of control under setting [9] and 120 % of control (dose: 1.0 mg/kg/injection, schedule: Q01DX009 (ip), vehicle: water).
With `CC(C)NCC(O)COc1ccc(O)c(O)c1` (stereo unspecified), the T/C under setting [10] is 93 % of control and 96 % of control; the T/C under setting [11] was 98 % of control and 100 % of control; the T/C under setting [12] was 89 % of control and 96 % of control; the T/C under setting [13] is 98 % of control.
`Cc1cc(=O)n2c3c(c4c(cc13)c(CN(C)C)cc(=O)n4C)OC2`: the T/C runs as follows: under setting [14], 106 % of control; under setting [15], 105 % of control; under setting [16], 109 % of control; under setting [17], 123 % of control.
Regarding `C=C1N(C)c2ccccc2C1(C)C`, the T/C runs as follows: under setting [18], 107 % of control; under setting [14], 102 % of control; under setting [15], 109 % of control; under setting [16], 98 % of control; under setting [17], 110 % of control.
On to `CNC(=O)c1cccc2c(Nc3ccc(NS(C)(=O)=O)cc3OC)c3cccc(C)c3nc12`, for which the T/C is, setting by setting: (dose: 3.0 mg/kg/injection, schedule: Q04DX003 (ip), vehicle: saline + alcohol) 114 % of control; (dose: 3.12 mg/kg/injection, schedule: Q04DX003 (ip), vehicle: saline + alcohol) 118 % of control; (dose: 6.0 mg/kg/injection, schedule: Q04DX003 (ip), vehicle: saline + alcohol) 156 % of control; (dose: 12.5 mg/kg/injection, schedule: Q04DX003 (ip), vehicle: saline + alcohol) 181 % of control and 309 % of control (2×); (dose: 12.5 mg/kg/injection, schedule: Q04DX003 (ip), vehicle: water) 178 % of control; (dose: 25.0 mg/kg/injection, schedule: Q04DX003 (ip), vehicle: water) 260 % of control.
Take `CCCCCC[C@H]([C@H](C)O)n1cnc2c(N)ncnc21`: the T/C reads like this: under setting [1], 88 % of control; under setting [2], 101 % of control; under setting [3], 114 % of control; under setting [4], 94 % of control; under setting [5], 109 % of control; under setting [6], 105 % of control.
As to `CC(C)NC(=O)N(CCCCBr)N=O`, the T/C reads like this: under setting [7], 114 % of control; under setting [4], 98 % of control; under setting [5], 116 % of control.
Turning to `O=[n+]1c2ccccc2n([O-])c2ccccc21.[Cl][Ni][Cl]`, the T/C is 93 % of control under setting [19]; 93 % of control under setting [18]; 90 % of control under setting [14]; 97 % of control under setting [15]; 97 % of control under setting [16].
For `CCOC(=O)c1[nH]c2cccc3c2c1CC(Br)C3=O` (stereo unspecified), the T/C by setting is: (dose: 12.0 mg/kg/injection, schedule: Q01DX009 (ip), vehicle: saline with Tween-80) 102 % of control; under setting [16], 100 % of control; under setting [17], 99 % of control.
As to `C[CH2][Sn]1([CH2]C)[O]OC(c2ccccc2)[O]1` (stereo unspecified), the T/C is, setting by setting: (dose: 0.78 mg/kg/injection, schedule: Q01DX009 (ip), vehicle: saline with Tween-80) 97 % of control; under setting [19], 100 % of control; under setting [18], 100 % of control; under setting [15], 95 % of control.
For the compound `Cn1cnc([N+](=O)[O-])c1Sc1ncn[nH]1`, the T/C by setting is: (dose: 12.5 mg/kg/injection, schedule: Q01DX009 (ip), vehicle: saline) 104 % of control; under setting [10], 111 % of control; under setting [11], 124 % of control; under setting [12], 116 % of control.
As for `Cc1ccccc1CN1C2=NCCN2C(=O)C2=C1CCN(S(=O)(=O)c1ccc(Cl)c(S(N)(=O)=O)c1)C2`, the T/C reads like this: under setting [20], 103 % of control; under setting [10], 99 % of control; under setting [11], 94 % of control; under setting [12], 99 % of control and 101 % of control; under setting [13], 96 % of control and 102 % of control; (dose: 400.0 mg/kg/injection, schedule: Q01DX009 (ip), vehicle: saline) 94 % of control and 98 % of control.
Take `[Na+]`: the T/C runs as follows: (dose: 50.0 mg/kg/injection, schedule: Q01DX009 (ip), vehicle: water) 102 % of control; (dose: 100.0 mg/kg/injection, schedule: Q01DX009 (ip), vehicle: water) 99 % of control; (dose: 200.0 mg/kg/injection, schedule: Q01DX009 (ip), vehicle: water) 95 % of control; (dose: 400.0 mg/kg/injection, schedule: Q01DX009 (ip), vehicle: water) 94 % of control; (dose: 800.0 mg/kg/injection, schedule: Q01DX009 (ip), vehicle: water) 108 % of control.
As for `C1CC[N-]CC1.[Cl][Pt+2][Cl].[NH-]C1CC1`, the T/C by setting is: (dose: 1.56 mg/kg/injection, schedule: Q01DX009 (ip), vehicle: water) 106 % of control; (dose: 3.12 mg/kg/injection, schedule: Q01DX009 (ip), vehicle: water) 110 % of control; (dose: 6.25 mg/kg/injection, schedule: Q01DX009 (ip), vehicle: water) 107 % of control and 109 % of control; (dose: 12.5 mg/kg/injection, schedule: Q01DX009 (ip), vehicle: water) 102 % of control and 120 % of control.
On to `CCN(CC)CCOCCO`, for which the T/C was 96 % of control under setting [20], 99 % of control under setting [10], 99 % of control under setting [11] and 101 % of control under setting [12].
With `CC(O)CCC(=O)c1ccoc1` (stereo unspecified), the T/C was 105 % of control (dose: 0.62 mg/kg/injection, schedule: Q03HX027 (ip), vehicle: saline); 97 % of control (dose: 1.25 mg/kg/injection, schedule: Q03HX027 (ip), vehicle: saline); 103 % of control (dose: 2.5 mg/kg/injection, schedule: Q03HX027 (ip), vehicle: saline); 94 % of control (dose: 5.0 mg/kg/injection, schedule: Q03HX027 (ip), vehicle: saline).
Consider `[N-]=[N+]=[N-]`, for which the T/C reads like this: (dose: 1.5 mg/kg/injection, schedule: Q01DX009 (ip), vehicle: saline) 96 % of control; (dose: 3.0 mg/kg/injection, schedule: Q01DX009 (ip), vehicle: saline) 98 % of control; (dose: 6.0 mg/kg/injection, schedule: Q01DX009 (ip), vehicle: saline) 106 % of control; under setting [20], 95 % of control.
`NC(=O)c1ccc(N)nc1`: the T/C is, setting by setting: under setting [8], 115 % of control; under setting [9], 115 % of control.
